Experimental data: PubChem BioAssay AID248 (DTP/NCI, 2004)
Values joined by “and” are separate entries in the source; they are usually repeats but may differ in a detail not shown here. Equal values may be shown once. Toxic doses and inconclusive results are not listed. No stated cut-off is given here; in the data, active means T/C of 150% or more; inactive means T/C below 125%.

Tested on: L1210 leukemia ip in BDF1 mice, survival T/C
Test: NCI In Vivo Anticancer Drug Screen. Data for tumor model L1210 Leukemia (intraperitoneal) in B6D2F1 (BDF1) mice
Conditions: endpoint: mean survival time, higher = longer survival
Outline: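 Read-out is survival time, reported as the treated-group measurement over the vehicle-control measurement.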

[1] = dose: 40.0 mg/kg/injection, schedule: Q01DX001 (ip), vehicle: saline
[2] = dose: 100.0 mg/kg/injection, schedule: Q01DX009 (ip), vehicle: saline with Tween-80
[3] = dose: 200.0 mg/kg/injection, schedule: Q01DX009 (ip), vehicle: saline with Tween-80
[4] = dose: 400.0 mg/kg/injection, schedule: Q01DX009 (ip), vehicle: saline with Tween-80
[5] = dose: 25.0 mg/kg/injection, schedule: Q04DX002 (ip), vehicle: Klucel (hydroxypropylcellulose) (HPC)
[6] = dose: 50.0 mg/kg/injection, schedule: Q04DX002 (ip), vehicle: Klucel (hydroxypropylcellulose) (HPC)
[7] = dose: 100.0 mg/kg/injection, schedule: Q04DX002 (ip), vehicle: Klucel (hydroxypropylcellulose) (HPC)
[8] = dose: 100.0 mg/kg/injection, schedule: Q01DX001 (ip), vehicle: Klucel (hydroxypropylcellulose) (HPC)
[9] = dose: 100.0 mg/kg/injection, schedule: Q01DX009 (ip), vehicle: Klucel (hydroxypropylcellulose) (HPC)
[10] = dose: 100.0 mg/kg/injection, schedule: Q04DX003 (ip), vehicle: Klucel (hydroxypropylcellulose) (HPC)
[11] = dose: 200.0 mg/kg/injection, schedule: Q01DX001 (ip), vehicle: Klucel (hydroxypropylcellulose) (HPC)
[12] = dose: 200.0 mg/kg/injection, schedule: Q01DX009 (ip), vehicle: Klucel (hydroxypropylcellulose) (HPC)
[13] = dose: 200.0 mg/kg/injection, schedule: Q04DX002 (ip), vehicle: Klucel (hydroxypropylcellulose) (HPC)
[14] = dose: 200.0 mg/kg/injection, schedule: Q04DX003 (ip), vehicle: Klucel (hydroxypropylcellulose) (HPC)
[15] = dose: 400.0 mg/kg/injection, schedule: Q01DX001 (ip), vehicle: Klucel (hydroxypropylcellulose) (HPC)
[16] = dose: 400.0 mg/kg/injection, schedule: Q04DX002 (ip), vehicle: Klucel (hydroxypropylcellulose) (HPC)
[17] = dose: 400.0 mg/kg/injection, schedule: Q04DX003 (ip), vehicle: Klucel (hydroxypropylcellulose) (HPC)
[18] = dose: 100.0 mg/kg/injection, schedule: Q01DX001 (ip), vehicle: carboxymethylcellulose (CMC)
[19] = dose: 200.0 mg/kg/injection, schedule: Q01DX001 (ip), vehicle: carboxymethylcellulose (CMC)
[20] = dose: 400.0 mg/kg/injection, schedule: Q01DX001 (ip), vehicle: carboxymethylcellulose (CMC)
[21] = dose: 100.0 mg/kg/injection, schedule: Q01DX001 (ip), vehicle: saline
[22] = dose: 200.0 mg/kg/injection, schedule: Q01DX001 (ip), vehicle: saline
[23] = dose: 100.0 mg/kg/injection, schedule: Q04DX003 (ip), vehicle: saline
[24] = dose: 200.0 mg/kg/injection, schedule: Q04DX003 (ip), vehicle: saline
[25] = dose: 400.0 mg/kg/injection, schedule: Q04DX003 (ip), vehicle: saline
[26] = dose: 400.0 mg/kg/injection, schedule: Q01DX001 (ip), vehicle: saline

Measured: T/C

O=NN(Cc1ccccc1)P(=O)(O)Oc1ccccc1
inactive: dose: 4.5 mg/kg/injection, schedule: Q01DX001 (ip), vehicle: saline 100 % of control | dose: 9.0 mg/kg/injection, schedule: Q01DX001 (ip), vehicle: saline 97 % of control | dose: 13.0 mg/kg/injection, schedule: Q01DX001 (ip), vehicle: saline 100 % of control | dose: 26.0 mg/kg/injection, schedule: Q01DX001 (ip), vehicle: saline 97 % of control | [1] 114 % of control | dose: 60.0 mg/kg/injection, schedule: Q01DX001 (ip), vehicle: saline 101 % of control | dose: 93.0 mg/kg/injection, schedule: Q01DX001 (ip), vehicle: saline 97 % of control | dose: 187.0 mg/kg/injection, schedule: Q01DX001 (ip), vehicle: saline 94 % of control | dose: 250.0 mg/kg/injection, schedule: Q01DX001 (ip), vehicle: saline 95 % of control | dose: 375.0 mg/kg/injection, schedule: Q01DX001 (ip), vehicle: saline 92 % of control | dose: 500.0 mg/kg/injection, schedule: Q01DX001 (ip), vehicle: saline 100 % of control | dose: 750.0 mg/kg/injection, schedule: Q01DX001 (ip), vehicle: saline 95 % of control

O=[N+]([O-])c1cc(Cl)ccc1N1CCCCC1
inactive: [2] 97 % of control | [3] 98 % of control | [4] 106 % of control

Cc1nc(N)[nH]c(=O)c1CCCNc1ccc(CCC(=O)CCl)cc1
inactive: dose: 50.0 mg/kg/injection, schedule: Q01DX Z (ip), vehicle: carboxymethylcellulose (CMC) 94 % of control | dose: 100.0 mg/kg/injection, schedule: Q01DX Z (ip), vehicle: carboxymethylcellulose (CMC) 94 % of control | dose: 200.0 mg/kg/injection, schedule: Q01DX Z (ip), vehicle: carboxymethylcellulose (CMC) 86 % of control

O=C(CCl)N(c1ccccc1)c1ccccc1
inactive: [5] 101 % of control and 107 % of control | [6] 103 % of control | [7] 95 % of control and 92 % of control

NC(CCC(=O)NC(=O)OCc1ccccc1)C(=O)O (configuration not stated)
inactive: [2] 102 % of control | [3] 100 % of control | [4] 97 % of control

O=C(Nc1ccc(C2=NCCN2)cc1)Nc1ccccc1NC(=O)Nc1ccc(C2=NCCN2)cc1
inactive: dose: 3.12 mg/kg/injection, schedule: Q01DX Z (ip), vehicle: water 100 % of control | dose: 6.25 mg/kg/injection, schedule: Q01DX Z (ip), vehicle: water 117 % of control | dose: 12.5 mg/kg/injection, schedule: Q01DX Z (ip), vehicle: water 105 % of control

Cc1ccc(NC(=O)OCCCl)c([N+](=O)[O-])c1
inactive: [8] 106 % of control | [9] 96 % of control and 100 % of control | [7] 97 % of control and 102 % of control | [10] 98 % of control | [11] 101 % of control | [12] 94 % of control and 111 % of control | [13] 96 % of control and 97 % of control | [14] 93 % of control | [15] 98 % of control | dose: 400.0 mg/kg/injection, schedule: Q01DX009 (ip), vehicle: Klucel (hydroxypropylcellulose) (HPC) 94 % of control and 91 % of control | [16] 97 % of control and 98 % of control | [17] 111 % of control

CCc1ccc(N=Nc2c(F)c(F)c(NC(C)=O)c(F)c2F)cc1
inactive: [18] 102 % of control | [19] 91 % of control | [20] 91 % of control

CNNCc1ccccc1
inactive: [21] 117 % of control | [22] 115 % of control

O=C(NCCCl)NC(CO)C(=O)O (configuration not stated)
inactive: [23] 98 % of control | [24] 93 % of control | [25] 95 % of control

CCOc1ccc(-n2c(=O)c(N=Nc3ccccc3C)c(O)n(-c3ccc(C)cc3)c2=S)cc1
inactive: dose: 37.5 mg/kg/injection, schedule: Q01DX001 (ip), vehicle: Klucel (hydroxypropylcellulose) (HPC) 92 % of control | dose: 75.0 mg/kg/injection, schedule: Q01DX001 (ip), vehicle: Klucel (hydroxypropylcellulose) (HPC) 101 % of control | dose: 150.0 mg/kg/injection, schedule: Q01DX001 (ip), vehicle: Klucel (hydroxypropylcellulose) (HPC) 97 % of control

COc1ccc(CNC(=O)NCCCl)cc1OC
inactive: [9] 102 % of control | [10] 115 % of control | [12] 103 % of control | [14] 113 % of control | [17] 101 % of control

Cc1ccccc1N(C)C(=S)c1ccc(Cl)cc1
inactive: [8] 105 % of control | [10] 92 % of control | [11] 102 % of control | [14] 94 % of control | [15] 110 % of control | [17] 96 % of control

CCCCc1ccccn1
inactive: [21] 96 % of control

COc1ccc(CN2CCCN(Cc3ccc(OC)cc3)C2c2ccc(NC(C)=O)cc2)cc1
inactive: dose: 100.0 mg/kg/injection, schedule: Q01DX001 (ip), vehicle: acetone 100 % of control | dose: 200.0 mg/kg/injection, schedule: Q01DX001 (ip), vehicle: acetone 100 % of control

COC(=O)c1ccc(=O)n(C/C=C(\C)CCC(=O)O)c1
inactive: dose: 100.0 mg/kg/injection, schedule: Q01DX009 (ip), vehicle: water 96 % of control | dose: 100.0 mg/kg/injection, schedule: Q04DX003 (ip), vehicle: other 93 % of control | dose: 200.0 mg/kg/injection, schedule: Q01DX009 (ip), vehicle: water 102 % of control | dose: 200.0 mg/kg/injection, schedule: Q04DX003 (ip), vehicle: other 93 % of control | dose: 400.0 mg/kg/injection, schedule: Q01DX009 (ip), vehicle: water 98 % of control | dose: 400.0 mg/kg/injection, schedule: Q04DX003 (ip), vehicle: other 91 % of control

CCOc1ccccc1/C=N\NC(=O)CCCC(=O)N/N=C/c1ccccc1OCC
inactive: [26] 111 % of control

CN1C=CC(=Cc2ccccc2)C=C1
inactive: dose: 12.5 mg/kg/injection, schedule: Q04DX002 (ip), vehicle: Klucel (hydroxypropylcellulose) (HPC) 90 % of control | [5] 107 % of control | [6] 107 % of control

CC12CCC3C(CCC4CC5SC5CC43C)C1CCC2O (configuration not stated)
inactive: [7] 108 % of control | [13] 111 % of control | [16] 101 % of control

CC=C=[CH][Sn]([CH2]CC)([CH2]CC)[CH2]CC
inactive: dose: 75.0 mg/kg/injection, schedule: Q01DX001 (ip), vehicle: saline 91 % of control

NCC(O)c1ccc(OCc2ccccc2)cc1 (configuration not stated)
inactive: [21] 94 % of control | [22] 103 % of control | [26] 108 % of control

O=C(O)C=C(CBr)CBr
inactive: dose: 10.0 mg/kg/injection, schedule: Q01DX001 (ip), vehicle: saline 93 % of control | dose: 20.0 mg/kg/injection, schedule: Q01DX001 (ip), vehicle: saline 94 % of control | [1] 109 % of control

CN(C)c1nc(N)nc(Nc2ccc(Br)cc2)c1N=O
inactive: dose: 50.0 mg/kg/injection, schedule: Q01DX001 (ip), vehicle: carboxymethylcellulose (CMC) 109 % of control | [18] 95 % of control | [21] 105 % of control | dose: 100.0 mg/kg/injection, schedule: Q01DX009 (ip), vehicle: saline 107 % of control | [23] 107 % of control | [19] 103 % of control | [22] 116 % of control | dose: 200.0 mg/kg/injection, schedule: Q01DX009 (ip), vehicle: saline 119 % of control | [24] 98 % of control | [20] 95 % of control | [26] 116 % of control | dose: 400.0 mg/kg/injection, schedule: Q01DX009 (ip), vehicle: saline 109 % of control | [25] 96 % of control
